Reference: patent publication US20130045475A1, “2-Nitrobenzyl-Modified Ribonucleotides” (ALERE SAN DIEGO, INC., priority 2004, published 2013)

Experiments:
T7 RNA polymerase [1] = molecular target: T1, T7 RNA polymerase (Escherichia phage T7, UniProt P00573); experiment: Primer extension reactions with RNA/DNA scaffold and T7 RNA polymerase; type: biochemical; parameters: purchased Fermentas; conditions: for extension of the RNA primer of the scaffold: sole nucleotide offered, template encodes rATP then rGTP, FIG. 2B
Description: The nucleic acid scaffolds were formed by incubating 1 nmol RNA-1 (5′-biotin-AACUGCGGCGAU-3′ (SEQ ID NO:1)) and 1 nmol DNA-1 (5′-[…]-3′ (SEQ ID NO:2)) in 100 μl transcription buffer (200 mM Tris-HCl (pH 7.9 at 25° C.), 30 mM MgCl2, 50 mM DTT, 50 mM NaCl, 10 mM spermidine) for 10 minutes at 70° C. Annealing occurred by slowly lowering the temperature to 25° C. The concentration of hybrid was assumed to be 10 μM.
For the primer extension reactions 2 pmoles of scaffold were mixed with 10 units of T7 RNA polymerase (Fermentas) in 9 μl transcription buffer to allow the transcription complex to form. Reactions were started by the addition of 1 μl of 1 mM nucleotide solution and incubated for 20 minutes at 37° C. Reactions were stopped by addition of 2 μl 500 mM EDTA and cooled on ice. UV irradiation was done for 10 minutes on a UV lamp.
Samples were precipitated, dissolved in formamide loading buffer and resolved on a denaturing 16% polyacrylamide gel (8M urea). Gels were electroblotted onto nylon-membrane (Osmonics, USA) in blotting buffer (0.5×TBE). Blots were incubated in blocking buffer (1×TBSTw/1% blocking reagent (Roche)) for 1 hour at room temperature to avoid non-specific noise, incubated with 0.5 μg/ml streptavidin-HRP (Sigma) in blocking buffer for 1 hour and washed extensively in Tris buffered saline containing 0.1% Tween-20. Detection was performed using a chemiluminescent substrate according to the instructions of the manufacturer (Pierce).

T7 RNA polymerase [2] = molecular target: T1, T7 RNA polymerase
Description: The reaction was started by the addition of 20 μl of 10 mM 2′-(2-Nitrobenzyl)-ATP and incubated for 2 hours at 37° C. Subsequently the reaction was split into 4 samples and subjected to deprotection: two samples were exposed to UV irradiation as described above, two untreated samples were incubated for the same period of time at ambient temperature. Deprotection was followed by addition of 1 volume of either extension mix containing 250 μM rNTPs in transcription buffer, or addition of transcription buffer only. Samples were then incubated for another 1 hour at 37° C.
Processing, separation and detection of products was done as described above.

T7 RNA polymerase [3] = molecular target: T1, T7 RNA polymerase; conditions: elongation mode complexes on duplex DNA substrates

T1 sequence (P00573 whole entry): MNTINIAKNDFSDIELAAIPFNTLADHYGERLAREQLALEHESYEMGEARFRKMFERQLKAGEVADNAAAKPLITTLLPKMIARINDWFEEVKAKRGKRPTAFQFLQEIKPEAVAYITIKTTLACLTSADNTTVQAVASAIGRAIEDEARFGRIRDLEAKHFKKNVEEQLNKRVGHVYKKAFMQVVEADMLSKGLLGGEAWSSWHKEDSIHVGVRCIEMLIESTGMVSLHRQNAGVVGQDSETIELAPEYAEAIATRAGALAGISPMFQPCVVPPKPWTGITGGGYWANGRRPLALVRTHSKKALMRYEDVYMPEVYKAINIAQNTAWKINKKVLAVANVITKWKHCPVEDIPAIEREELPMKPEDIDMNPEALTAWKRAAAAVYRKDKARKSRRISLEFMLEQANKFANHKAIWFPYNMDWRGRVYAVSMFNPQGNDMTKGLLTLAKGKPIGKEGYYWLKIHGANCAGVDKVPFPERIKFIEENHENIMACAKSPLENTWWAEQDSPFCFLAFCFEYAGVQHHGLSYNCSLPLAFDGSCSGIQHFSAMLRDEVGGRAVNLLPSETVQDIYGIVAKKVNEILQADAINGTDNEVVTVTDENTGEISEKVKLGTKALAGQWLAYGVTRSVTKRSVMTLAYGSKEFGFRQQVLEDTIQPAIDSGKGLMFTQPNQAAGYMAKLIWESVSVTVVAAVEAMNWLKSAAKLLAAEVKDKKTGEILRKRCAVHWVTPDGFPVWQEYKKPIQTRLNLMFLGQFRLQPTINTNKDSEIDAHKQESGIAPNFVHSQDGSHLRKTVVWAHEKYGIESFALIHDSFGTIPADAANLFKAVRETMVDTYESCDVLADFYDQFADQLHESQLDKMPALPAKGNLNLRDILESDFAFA

Q: Which results are given for Nc1ncnc2c1ncn2[C@@H]1O[C@H](COP(=O)(O)OP(=O)(O)OP(=O)(O)O)[C@@H](O)[C@H]1OCc1ccccc1[N+](=O)[O-] [2′-(2-Nitrobenzyl)-ATP]?
A: incorporation of the nucleotide analog into a growing RNA chain (T7 RNA polymerase [1]; RNA/DNA scaffold, 10 units T7 RNA polymerase, 1 μl of 1 mM nucleotide solution, 20 minutes at 37° C., gel mobility before and after UV): incorporation into the nascent RNA chain by T7 RNAP; reversal of termination on deprotection (T7 RNA polymerase [2]; UV irradiation 10 minutes, then 250 μM rNTPs extension mix, 1 hour at 37° C., FIG. 3 lane 4): Elongation of the transcript can resume upon removal of the protecting 2-Nitrobenzyl group by UV irradiation; termination of transcription (T7 RNA polymerase [2]; scaffold + T7 RNAP + 2′-(2-Nitrobenzyl)-ATP 2 hours at 37° C., no UV, then rNTPs, FIG. 3 lane 3): acts as a bona fide terminator of transcription; incorporation into a growing RNA chain (T7 RNA polymerase [3]): we have not observed this activity

Q: Which “extension of the RNA primer of the scaffold” value (T7 RNA polymerase [1]) does the source give for Nc1ncnc2c1ncn2[C@@H]1O[C@H](COP(=O)(O)OP(=O)(O)OP(=O)(O)O)[C@@H](O)[C@H]1O [rATP, adenosine 5′-triphosphate] here?
A: The value was “extended by one or two bases”.

Q: Which “extension of the RNA primer of the scaffold” value (T7 RNA polymerase [1]) does the source give for Nc1ccn([C@@H]2O[C@H](COP(=O)(O)OP(=O)(O)OP(=O)(O)O)[C@@H](O)[C@H]2O)c(=O)n1 [rCTP, cytidine 5′-triphosphate] here?
A: The value was “extension is limited to one base only”.
